Data: US12691183B2, “Methods of making and using nanoparticles for treatment of bacterial biofilm” (Brown University, priority 2022, dated 2026)
Where a name gives a salt, the structure may show the parent alone.

Tests used:
V. vulnificus [1] = assay: MIC microdilution assay against planktonic bacteria; assay type: cell-based; settings: Vibrio vulnificus, 16-18 hours, Doxy or loaded Doxy concentration
Protocol: The minimum inhibitory concentrations (MICs) of NPs against V. vulnificus were determined using the microdilution assay as previously reported. See T. Gwisai, N. R. Hollingsworth, S. Cowles, N. Tharmalingam, E. Mylonakis, B. B. Fuchs and A. Shukla, Biomedical Materials, 2017, 12, 045010; D. Alkekhia and A. Shukla, Journal of Biomedical Materials Research Part A, 2019, 107, 1324-1339. Free Doxy and Doxy loaded NPs were diluted 2-fold in LB in 96-well plates to obtain concentrations of Doxy or loaded Doxy ranging from 0.03-4.0 μg/mL. V. vulnificus in LB media in its logarithmic growth phase was added to each well at a final concentration of 1×10^5 colony forming units (CFU)/mL. Positive control (PC) of bacteria cultured in LB only and negative control (NC) of LB without bacteria were included. After 16-18 hours of shaking (100 rpm) at 37° C., OD600 was measured using a plate reader. The normalized bacteria density (%) was calculated as follows: […]

V. vulnificus biofilm [2] = assay: Inhibition of biofilm formation, crystal violet staining; assay type: cell-based; settings: inhibits biofilm formation by 80%, 24-hour incubation
Protocol: The investigate the effect of free Doxy and Doxy-loaded NPs on V. vulnificus biofilm formation, V. vulnificus was prepared for biofilm formation. When adding the bacteria in its logarithmic growth phase to 96-well plates, free Doxy or Doxy-loaded NPs were added simultaneously at varying concentrations. Bacteria lacking Doxy treatment were included as a PC and LBS without bacteria was included as a NC. Following a 24-hour incubation in static conditions, the biofilm biomass was quantified using crystal violet staining. Briefly, the supernatant media was gently removed, and biofilms were washed three times with 1×PBS. Next biofilms were stained with 200 μL 0.1% (w/v) crystal violet in 1×PBS for 15 minutes, followed by three 1×PBS washes. The stain was eluted by incubation with 200 μL of 100% ethanol with shaking (100 rpm) for 2 min at RT. The absorbance at 570 nm (OD570) was measured using a plate reader. Normalized biofilm biomass was calculated as follows: [formula]

V. vulnificus biofilm [3] = assay: Eradication of mature biofilm, crystal violet assay; assay type: cell-based; settings: reduces initial biomass of 48 h mature biofilm by 90%, 24 h treatment
Protocol: Unless otherwise noted, all biofilm experiments utilized the following procedure for the formation of a 48 h matured biofilm. V. vulnificus inoculated LB medium was incubated for 18 h with shaking (100 rpm) at 37° C. This bacteria suspension was dilute 1:500 (v/v) in LB media supplemented with 2% w/v NaCl (LB S) at pH 5.5. The optical density of the bacteria suspension at 600 nm (OD600) was monitored overtime. Once in its logarithmic growth phase (OD600=0.1, which is ~1.5×10^7 CFU/mL), biofilms were formed by static incubation of bacteria at 37° C. for 48 hours either in chamber slides of multi-well plates. Every 24 hours, the biofilms were gently washed three times with 1×PBS and add fresh LBS was added.
(§1) The effect of treatment with free Doxy, Doxy-GNP, CS-Doxy-GNP, and HA-CS-Doxy-GNP of 48 h aged V. vulnificus biofilms was assessed by examining biofilm morphology and quantifying biomass and cell viability. Morphology assessment via ESEM, LIVE/DEAD viability staining, colony enumeration and crystal violet staining were performed after incubation of the biofilms with the various treatment groups at a Doxy concentration of 50 μg/mL in 1×PBS or with a 1×PBS control for 24 hours at 37° C.
Biofilm biomass was assessed for 48 h mature biofilms formed in 96-well plates. […] Following 24 hours of incubation, the biofilm biomass was quantified using crystal violet staining as described earlier.

V. vulnificus biofilm [4] = assay: Colony counting assay of treated mature biofilm; assay type: cell-based; settings: 50 μg/mL Doxy, 24 h
Protocol: as §1, with “C. Colony enumeration was also conducted by first dispersing biofilms formed in 48-well plates by sonication following treatment. Each sample was then serially diluted in LB, and […] of the dilution was plated onto LB agar plates. Agar plates were imaged and CFU were counted following incubation for 24 h at 37° C.” for “C.”

V. vulnificus [5] = assay: Ex vivo pig skin infection model; assay type: cell-based
Protocol: Frozen porcine skin tissue was thawed and washed with 1×PBS. A biopsy punch (8 mm) was used to create tissue sections from freshly thawed tissue. A 1.5-mm deep well was created in the center of each of these skin samples using a smaller 3-mm biopsy punch. The tissue pieces were sterilized by immersing in 70% (v/v) ethanol for 2 hours and drying for 30 minutes in a CellGard™ Energy Saver class II, type A2 biosafety cabinet (NuAire, Plymouth, MN). The sterile tissue was then placed on soft TSB agar plates containing 0.5% (w/v) agar with 100 μg/mL vancomycin. Note that vancomycin was included as a common antibiotic against gram-positive to prevent contamination by non-V. vulnificus bacteria. The skin was then infected by adding 10 μL of V. vulnificus suspension (OD600=0.1) in the 3 mm diameter well in each sample. The inoculated skin pieces were incubated for 48 hours at 37° C. in a humidified chamber. The tissue samples were transferred to a new agar plate every 24 hours. At 48 hours, 15 μL of Doxy or HA-CS-Doxy-GNP at a Doxy concetration of 10, 50 or 100 μg/mL was added to the infected skin samples and incubated for a further 24 hours. Controls of tissue inoculated with bacteria treated with LBS at pH 5.5 only and tissue without bacteria treated with LBS at pH 5.5 were included as controls. […]

HUVEC = assay: CCK-8 cytotoxicity assay, HUVEC; assay type: cell-based, human; settings: 50 μg/mL Doxy, 24 hour
Protocol: (§2) The cytotoxicity of each NP formulation was evaluated for HUVEC and […] using a CCK-8 viability assay. Briefly, HUVEC and NIH 3T3 cells were cultured at a density of ~5000 cells/cm^2 in EGM-2 endothelial cell growth medium and DMEM supplemented with 10% (v/v) FBS and 1% (v/v) penicillin/streptomycin, respectively at 37° C. with 5% CO2. After 24 hours, cells were treated with Doxy, Doxy-GNPs, CS-Doxy-GNP and HA-CS-Doxy-GNP at a Doxy concentration of 50 μg/mL in the respective media. Cells treated with media only and wells containing no cells or NPs were included as PCs and NCs, respectively. Following a 24 hour incubation, the media was removed, cells were rinsed with 1×PBS three times and 10 μL of CCK-8 solutions was added to each well. After incubation for 4 hours at 37° C. with 5% CO2, the absorbance was read at 450 nm (OD450) using a plate reader. Normalized cell viability was calculated using the following equation. [formula]

NIH 3T3 cells = assay: CCK-8 cytotoxicity assay, NIH 3T3; assay type: cell-based, mouse; settings: NIH 3T3, 50 μg/mL Doxy, 24 hour
Protocol: as §2

C[C@H]1c2cccc(O)c2C(=O)C2=C(O)[C@]3(O)C(=O)C(C(N)=O)=C(O)[C@@H](N(C)C)[C@@H]3[C@@H](O)[C@@H]21 [Doxy, doxycycline hydrochloride]
MIC (V. vulnificus [1]): 0.5 µg/mL
MBIC80 (V. vulnificus biofilm [2]): about 16 μg/mL
MBEC90 (V. vulnificus biofilm [3]): about 50 μg/mL
reduction in CFU compared to no treatment control (V. vulnificus biofilm [4]): 2 log reduction
number of living bacterial cells compared with untreated pig skin (V. vulnificus [5]; 50 μg/mL or 100 μg/mL Doxy, 24 hours): significantly reduced
mean value of CFU/mL relative to untreated samples (100%) (V. vulnificus [5]; 2 days infection, 24 hours treatment, 100 μg/mL Doxy): 16.42%
cell viability (HUVEC): about 60%
cell viability (NIH 3T3 cells): about 70%
